The record followed here is PubChem BioAssay AID720514 (Broad Institute, 2013).

This assay relates to U2OS PGC1a acetylation, AlphaLISA, overnight. As to the kind of experiment: inhibitors of PGC1a acetylation in cells, dose response, cell-based, cherry-picked samples (AID 720514).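 Further: actives lower the acetylation signal so they count as inhibitors of PGC1a acetylation.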

One may read the AC50 as the midpoint of the concentration-response curve, whichever way the signal moves. Consider `C[C@H]1CN([C@@H](C)CO)C(=O)Cc2cc(NC(=O)Nc3ccccc3)ccc2O[C@@H]1CN(C)Cc1ccccc1`, for which the AC50 is 21.5 µM.
As for `C[C@H]1[C@@H](OS(=O)(=O)O)C[C@@H]2C[C@H]([C@@H](O)c3cc(=O)[nH]c(=O)[nH]3)NC3=NC[C@H]1N32`, the figure is 3.65 µM.
